Measured values as given in US20220347175A1, “PYRIDAZINONE DERIVATIVE” (Sumitomo Dainippon Pharma Co., Ltd., priority 2018, published 2022).

Assays:
[1] = molecular target: T1, human Nav1.1 (Homo sapiens, UniProt P35498); assay: Amplification of Nav1.1-derived voltage-dependent sodium current (Nav1.1 current), cell line stably expressing human Nav1.1, automated patch clamp; format: cell-based
T1 construct: host or cells: HEK293
Outline: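 Automated whole-cell voltage-clamp recordings used HEK293 cells stably expressing human Nav1.1, keeping only cells with >500 pA current, with currents evoked by ramp voltage. Compounds were applied in extracellular fluid with 1% DMSO, and amplification (%) was computed from peak current or AUC after versus before addition.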

[2] = molecular target: T2, human Nav1.5 (Homo sapiens, UniProt Q14524); assay: Amplification of Nav1.5-derived voltage-dependent sodium current (Nav1.5 current), cell line stably expressing human Nav1.5, automated patch clamp; format: cell-based
T2 construct: expressed in transfected cells; host or cells: CHO-K1 (T-REx System, ThermoFisher Scientific)
T2 sequence (Q14524 1-2015 isoform Q14524-2): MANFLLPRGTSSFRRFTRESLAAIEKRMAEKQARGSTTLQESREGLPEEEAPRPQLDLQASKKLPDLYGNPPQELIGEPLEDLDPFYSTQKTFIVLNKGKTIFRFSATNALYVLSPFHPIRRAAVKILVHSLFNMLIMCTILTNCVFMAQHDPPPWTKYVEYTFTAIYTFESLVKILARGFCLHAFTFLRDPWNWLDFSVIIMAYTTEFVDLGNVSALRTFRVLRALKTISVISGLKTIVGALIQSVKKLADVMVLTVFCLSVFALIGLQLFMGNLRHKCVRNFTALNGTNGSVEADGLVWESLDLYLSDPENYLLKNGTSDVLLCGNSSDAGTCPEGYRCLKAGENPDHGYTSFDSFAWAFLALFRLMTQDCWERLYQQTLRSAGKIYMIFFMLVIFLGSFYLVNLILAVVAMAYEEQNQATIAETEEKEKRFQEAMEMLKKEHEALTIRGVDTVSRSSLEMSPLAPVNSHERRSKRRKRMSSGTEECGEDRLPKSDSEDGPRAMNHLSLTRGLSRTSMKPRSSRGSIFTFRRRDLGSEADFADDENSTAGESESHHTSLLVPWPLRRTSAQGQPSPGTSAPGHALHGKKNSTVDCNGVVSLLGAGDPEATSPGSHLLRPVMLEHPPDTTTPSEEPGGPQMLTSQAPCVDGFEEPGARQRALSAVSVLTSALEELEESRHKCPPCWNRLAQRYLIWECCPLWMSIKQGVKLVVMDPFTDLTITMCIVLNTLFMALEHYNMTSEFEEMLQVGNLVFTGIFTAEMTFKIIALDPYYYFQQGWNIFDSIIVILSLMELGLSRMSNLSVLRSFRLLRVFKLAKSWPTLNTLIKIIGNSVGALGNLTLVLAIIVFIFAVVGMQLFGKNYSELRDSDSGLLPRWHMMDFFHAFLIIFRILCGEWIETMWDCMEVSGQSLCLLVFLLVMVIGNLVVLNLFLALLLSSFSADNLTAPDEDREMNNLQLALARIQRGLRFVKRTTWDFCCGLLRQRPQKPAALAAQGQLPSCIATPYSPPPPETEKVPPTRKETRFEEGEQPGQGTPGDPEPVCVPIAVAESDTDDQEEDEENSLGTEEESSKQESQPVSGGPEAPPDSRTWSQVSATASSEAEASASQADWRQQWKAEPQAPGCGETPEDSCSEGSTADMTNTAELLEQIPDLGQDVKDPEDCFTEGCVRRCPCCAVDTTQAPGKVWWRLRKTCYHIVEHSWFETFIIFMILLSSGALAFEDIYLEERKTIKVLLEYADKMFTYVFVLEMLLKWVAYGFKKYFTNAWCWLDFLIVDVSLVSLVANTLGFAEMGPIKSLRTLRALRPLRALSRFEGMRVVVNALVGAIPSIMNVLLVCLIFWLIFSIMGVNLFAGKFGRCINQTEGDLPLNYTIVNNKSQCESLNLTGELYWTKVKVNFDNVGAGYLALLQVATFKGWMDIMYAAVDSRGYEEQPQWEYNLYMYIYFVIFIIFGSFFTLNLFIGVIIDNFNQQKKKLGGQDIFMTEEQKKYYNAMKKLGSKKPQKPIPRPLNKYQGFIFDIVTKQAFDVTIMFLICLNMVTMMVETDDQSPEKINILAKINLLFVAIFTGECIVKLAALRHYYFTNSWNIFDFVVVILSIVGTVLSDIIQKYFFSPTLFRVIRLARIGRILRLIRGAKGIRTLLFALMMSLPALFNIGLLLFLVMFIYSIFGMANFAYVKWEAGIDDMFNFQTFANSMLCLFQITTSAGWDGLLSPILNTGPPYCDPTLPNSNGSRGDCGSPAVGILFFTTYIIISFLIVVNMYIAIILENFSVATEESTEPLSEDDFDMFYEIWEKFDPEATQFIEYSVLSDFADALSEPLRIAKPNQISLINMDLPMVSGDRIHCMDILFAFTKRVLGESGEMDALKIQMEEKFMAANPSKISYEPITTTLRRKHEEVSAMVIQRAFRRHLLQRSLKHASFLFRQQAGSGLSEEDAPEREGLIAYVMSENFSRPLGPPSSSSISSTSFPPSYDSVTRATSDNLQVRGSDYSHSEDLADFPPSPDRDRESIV
Experimental: Test 2: Evaluation of the Amplification in Nav1.5-Derived Voltage-Dependent Sodium Current (Nav1.5 Current) by Using a Cell Line Stably Expressing Human Nav1.5
A CHO-K1 cell line (Chinese hamster ovary) stably expressing human Nav1.5 (Gene Bank Accession No: P000326.2) was obtained by using purchased T-Rex System (ThermoFisher Scientific, USA), and used for the present test. The effect of test compounds on the amplification of Nav1.5 current was evaluated by using a cell line stably expressing human Nav1.5 and HTS automated patch clamp system, similarly in the method using Nav1.1. In other words, test compounds were added in an extracellular fluid which contained 1% DMSO and 500 nmol/L Tetrodotoxin (TTX), and evaluated as a change of the peak value of Nav1.5 current and the area under the curve (AUC). The induction and the measurement of Nav1.5 current, the pharmacologic effect on Nav1.5 current, and a method for pharmacological evaluation were carried out by the same method as in Nav1.1.

[3] = 10 μmol/L compound, change of the area under the curve of Nav1.1 current (Test Result 1)
[4] = 10 μmol/L compound, change of the area under the curve of Nav1.5 current (Test Result 1)
[5] = compound 1 μmol/L, HEK293 stably expressing human Nav1.1
[6] = compound 1 μmol/L, CHO-K1 stably expressing human Nav1.5
[7] = 10 μmol/L compound, change of the area under the curve of Nav1.1 current (Test Result 1), read-out: Nav1.1 current amplification rate (%)
[8] = 10 μmol/L compound, change of the area under the curve of Nav1.5 current (Test Result 1), read-out: Nav1.5 current amplification rate (%)
[9] = 10 μmol/L compound (Test Result 5)

## CC1CC=C(c2ccc(=O)n(CC(=O)N3CC=C(c4cncc(F)c4)CC3)n2)CC1 (racemic) [Example 397]
[1]; [3]
  Nav1.1 current amplification rate (%): 273%
[2]; [4]
  Nav1.5 current amplification rate (%): 49%

## CC1CC=C(c2ccc(=O)n(CC(=O)N3CCc4c3cccc4C(C)(C)O)n2)CC1 (racemic) [Example 277]
[1]; [5]
  Nav1.1 current amplification rate (%): 210%
[2]; [6]
  Nav1.5 current amplification rate (%): 18%

## CC1(C)CC=C(c2ccc(=O)n(CC(=O)Nc3ccc4ocnc4c3)n2)CC1 [Example 445, N-(1,3-benzooxazol-5-yl)-2-[3-(4,4-dimethylcyclohex-1-en-1-yl)-6-oxopyridazin-1(6H)-yl]acetamide]
[1]; [7]
  activation at 10 µM: 320%
[2]; [8]
  activation at 10 µM: 52%

## O=C(Cn1nc(C2=CCC(F)(F)CC2)ccc1=O)Nc1ccn2ccnc2c1 [Example 464]
[1]; [3]
  Nav1.1 current amplification rate (%): 18%
[2]; [4]
  Nav1.5 current amplification rate (%): 1%

## Cc1nccn1-c1ccc(NC(=O)Cn2nc(C3=CCC(C)CC3)ccc2=O)cc1 (racemic) [Example 361]
[1]; [5]
  Nav1.1 current amplification rate (%): 101%
[2]; [6]
  Nav1.5 current amplification rate (%): 112%

## CC1CC=C(c2ccc(=O)n(CC(=O)N3CCc4c(CN5CC=CC5)cccc43)n2)CC1 (racemic) [Example 287]
[1]; [5]
  Nav1.1 current amplification rate (%): 73%
[2]; [6]
  Nav1.5 current amplification rate (%): 123%

## COc1cc(C2=CCC(C)(C)CC2)nn(CC(=O)Nc2ccn3ccnc3c2)c1=O [Example 456]
[1]; [3]
  Nav1.1 current amplification rate (%): 224%
[2]; [4]
  Nav1.5 current amplification rate (%): 29%

## CC1CCN(c2ccc(=O)n(CC(=O)Nc3ccc4c(c3)NC(=O)C4)n2)CC1 [Example 86]
[1]; [3]
  Nav1.1 current amplification rate (%): 73%
[2]; [4]
  Nav1.5 current amplification rate (%): 3%

## CC1(C)CC=C(c2ccc(=O)n(CC(=O)N3CCC4(CCOCC4)CC3)n2)CC1 [Example 441]
[1]; [3]
  Nav1.1 current amplification rate (%): 30%
[2]; [4]
  Nav1.5 current amplification rate (%): 1%

## O=C(Cn1nc(N2CCC3(CCCC3)C2)ccc1=O)Nc1ccc2ocnc2c1 [Example 122]
[1]; [7]
  activation at 10 µM: 173%
[2]; [8]
  activation at 10 µM: 18%

## CC1CCN(c2ccc(=O)n(CC(=O)Nc3cccc(C#N)c3)n2)CC1 [Example 55]
[1]; [3]
  Nav1.1 current amplification rate (%): 111%
[2]; [4]
  Nav1.5 current amplification rate (%): 27%

## COc1cc(=O)n(CC(=O)Nc2ccc3oc(C(F)F)nc3c2)nc1C1=CCC(C)(C)CC1 [Example 493]
[1]; compound 3 μmol/L, HEK293 stably expressing human Nav1.1, read-out: Nav1.1 current amplification rate (%)
  activation at 3 µM: 317%
[2]; compound 3 μmol/L, CHO-K1 stably expressing human Nav1.5, read-out: Nav1.5 current amplification rate (%)
  activation at 3 µM: 20%

## CC1CC=C(c2ccc(=O)n(CC(=O)N3CCc4c(OCC(C)(C)O)cccc43)n2)CC1 (racemic) [Example 307]
[1]; compound 3 μmol/L, HEK293 stably expressing human Nav1.1
  Nav1.1 current amplification rate (%): 320%
[2]; compound 3 μmol/L, CHO-K1 stably expressing human Nav1.5
  Nav1.5 current amplification rate (%): 37%

## CN(C)c1cc(N2CCC(C)(C)CC2)nn(CC(=O)Nc2ccn3ccnc3c2)c1=O [Example 211]
[1]; [7]
  activation at 10 µM: 212%
[2]; [8]
  activation at 10 µM: 8%

## Cc1c(N2CCC(C)CC2)nn(CC(=O)Nc2ccc(C#N)nc2)c(=O)c1C [Example 100]
[1]; [7]
  activation at 10 µM: 197%
[2]; [8]
  activation at 10 µM: 56%

## CC1C=C(c2ccc(=O)n(CC(=O)Nc3ccc(C#N)cc3)n2)CC(C)O1 (stereo not drawn) [Example 49]
[1]; [9]
  Nav1.1 current amplification rate (%): 2%

## CC1(C)CC(c2ccc(=O)n(CC(=O)Nc3ccc(C#N)cc3)n2)=CCO1 [Example 506]
[1]; compound 50 μmol/L, HEK293 stably expressing human Nav1.1, read-out: Nav1.1 current amplification rate (%)
  activation at 50 µM: 10%

## N#Cc1ccc(NC(=O)Cn2nc(N3CCCC4(CC4)C3)ccc2=O)cc1 [Example 20]
[1]; [9]
  Nav1.1 current amplification rate (%): 152%

## N#Cc1ccc(NC(=O)Cn2nc(N3CCC(F)(F)CC3)ccc2=O)cc1 [Example 5]
[1]; [9]
  Nav1.1 current amplification rate (%): 6%

## N#Cc1ccc(NC(=O)Cn2nc(N3CCCCCC3)ccc2=O)cc1 [Example 11]
[1]; [9]
  Nav1.1 current amplification rate (%): 205%

## Cc1ccc(Oc2ccc(=O)n(CC(=O)N3CCc4c(-c5ccnnc5)cccc43)n2)cc1 [Example 529]
[1]; concentration of each compound 1 μmol/L (Test Result 6), read-out: Nav1.1 current amplification rate (%)
  activation at 1 µM: 43%

## N#Cc1ccc(NC(=O)Cn2nc(N3CCC4(CCCO4)CC3)ccc2=O)cc1 [Example 29]
[1]; [9]
  Nav1.1 current amplification rate (%): 20%

## N#Cc1ccc(NC(=O)Cn2nc(N3CCC4(CC4)C3)ccc2=O)cc1 [Example 25]
[1]; [9]
  Nav1.1 current amplification rate (%): 163%

## Cc1cc2ccc(NC(=O)Cn3nc(C4=CCC(C)CC4)ccc3=O)cn2n1 (racemic) [Example 347]
[1]; concentration of each compound 1 μmol/L (Test Result 6)
  Nav1.1 current amplification rate (%): 37%
